Patent publication US10039729B2, “Use of kukoamine A and kukoamine B” (Tianjin Chase Sun Pharmaceutical Co., Ltd., priority 2010, dated 2018)

Experiments:
[1] = tested on: RAW264.7 cells; assay: Release of TNF-α and IL-6 in RAW264.7 cells induced by LPS and CpG DNA (ELISA); format: cell-based, murine; conditions: for release of TNF-α induced by CpG DNA / release of TNF-α induced by LPS: 0, 50 and 100 ng/ml, 4 h, p<0.01
Procedure: 6.1 Methods: RAW264.7 cells were diluted to 1×10^6/ml in DMEM supplemented with 10% (v/v) NCS, added into 96-well plates (200 μl per well), and cultured at 37° C. in a 5% CO2 humidified incubator for 4 h until cells adhere to the wall; culture medium were replaced with fresh culture medium, added with KA and KB (final concentrations of 0, 50 and 100 ng/ml), and added with LPS (final concentration of 100 ng/ml) and CpG DNA (final concentration of 10 μg/ml); at the same time, medium group without any reagent was established; subsequently, RAW264.7 cells were incubated for 4 h; and the supernatant was collected for further detection; detection of the TNF-α concentration was performed according to the manufacturer's instructions of ELISA kit. Result was expressed by means of mean±standard deviation.
12.1 Methods: According to the method in embodiment 6, KB was dissolved in DMEM supplemented with 10% (v/v) NCS, subsequently transferred into Culture medium of RAW264.7 cells to achieved final concentrations of 100 and 200 μM, added with LPS (final concentration of 100 ng/ml) and CpG DNA (final concentration of 10 μg/ml), incubated for 24 h, and then collected supernatant; the concentration of TNF-α and IL-6 of each group was detected according to the manufacturer's instructions of ELISA kit; result was expressed by means of mean±standard deviation.
13.1 Methods: According to the method in embodiment 6, KB and PMB were separately dissolved in DMEM supplemented with 10% (v/v) NCS, subsequently transferred into culture medium of RAW264.7 cells to achieved final concentrations of 50, 100 and 200 μM, and then added with LPS (final concentration of 100 ng/ml) and CpG DNA (final concentration of 10 μg/ml); RAW264.7 cells continued to be incubated; the supernatant were collected four hours later for TNF-α detection; the supernatant were collected 12 hours later for IL-6 detection; the concentration of TNF-α and IL-6 of each group was detected according to the manufacturer's instructions of ELISA kit; result was expressed by means of mean±standard deviation.
17.1 Methods: RAW264.7 cells was diluted to 1×10^6/ml in DMEM supplemented with 10% (v/v) NCS, transferred into 96-well plates (200 μl per well) and cultured at 37° C. in a 5% CO2 humidified incubator for 4 h.
(1) Observation of dose-dependent effects: For the purpose of experiment a medium group and a KB treatment group were established; each group included three repeated wells; medium group was added with no reagent; KB treatment group was added with KB (final concentrations of 12.5, 25, 50, 100 and 200 μM) in each well, and subsequently added with LPS (final concentration of 100 ng/ml) or CpG DNA (final concentration of 10 μg/ml); cells were cultured at 37° C. in a 5% CO2 humidified incubator for 12 h; the supernatant was collected for further detection; operations were performed according to the manufacturer's instructions of ELISA kit, and the result was expressed by means of mean±standard deviation.
(2) Observation of time-dependent effects: For the purpose of experiment a medium group, a stimulation group and a KB treatment group were established; each group contained three repeated wells; medium group was added with no reagent; stimulation group was added with LPS and CpG DNA; KB treatment group was added with LPS and CpG DNA, in the meantime added with KB (final concentration of 200 μM); cells continued to be cultured at 37° C. in a 5% CO2 humidified incubator; the supernatant at time point of 0, 2, 4, 8, 12 and 24 h after stimulation was separately collected for further detection; detection of TNF-α concentration was performed according to the manufacturer's instructions of ELISA kit, and the result was expressed by means of mean±standard deviation.
18.1 Methods: RAW264.7 cells were diluted to 1×10^6/ml in DMEM supplemented with 10% (v/v) NCS, transferred into 96-well plates (200 μl per well) and cultured at 37° C. in a 5% CO2 humidified incubator for 4 h. […]

[2] = tested on: murine peritoneal macrophages; assay: Release of TNF-α and IL-6 in murine peritoneal macrophages induced by LPS and CpG DNA (ELISA); format: cell-based, KM mice; conditions: 50, 100 and 200 μM, TNF-α at 4 h, IL-6 at 12 h
Procedure: Separation and culture of murine peritoneal macrophages: KM mice were killed by cervical dislocation and immediately immersed in 75% ethanol for skin degerming; then abdominal skin was aseptically cut open; precooling DMEM cell culture medium was slowly injected in exposed peritoneum with a 5 ml syringe; murine abdomen was gently massaged for sufficient cell collection; subsequently, DMEM was withdrew, transferred into 10 ml centrifuge tube, centrifuged at 500 rpm for 5 min, resuspended in DMEM supplemented with 10% (v/v) NCS, transferred into cell culture bottle, and then cultured at 37° C. in a 5% CO2 humidified incubator for 2 h; culture medium was replaced with fresh culture medium to remove unattached cells; over 95% of the remained cells were murine peritoneal macrophages, which continued to be cultured and proliferated.
Loading and detection: According to the method in embodiment 6, KB and PMB were separately diluted in DMEM supplemented with 10% (v/v) NCS and transferred into culture medium of […] to achieved final concentrations of 50, 100 and 200 μM; RAW264.7 cells continued to be incubated; the supernatant was collected four hours later for TNF-α detection; the supernatant at were collected 12 hours later for IL-6 detection; the concentration of TNF-α and IL-6 of each group was detected according to the manufacturer's instructions of ELISA kit; result was expressed by means of mean±standard deviation.

[3] = CpG DNA 10 μg/ml, dose-dependent
[4] = 50, 100 and 200 μM, CpG DNA 10 μg/ml, TNF-α at 4 h, IL-6 at 12 h
[5] = 50, 100 and 200 μM, LPS 100 ng/ml, TNF-α at 4 h, IL-6 at 12 h

| Molecule | release of TNF-α induced by CpG DNA [1, 3] | release of TNF-α induced by LPS ([1]; LPS 100 ng/ml, dose-dependent) | release of TNF-α and IL-6 induced by CpG DNA [1, 4] | release of TNF-α and IL-6 induced by LPS [1, 5] | release of TNF-α and IL-6 induced by CpG DNA ([1]; 100 and 200 μM, CpG DNA 10 μg/ml, 24 h) | release of TNF-α and IL-6 induced by LPS ([1]; 100 and 200 μM, LPS 100 ng/ml, 24 h) | difference of RAW264.7 cells activation (TNF-α release) vs CpG DNA group ([1]; KB 12.5 μM, CpG DNA 10 μg/ml, 12 h, p>0.05) | difference of RAW264.7 cells activation (TNF-α release) vs LPS group ([1]; KB 12.5 μM, LPS 100 ng/ml, 12 h, p>0.05) | inhibitory activity on TNF-α release induced by CpG DNA ([1]; KB 25 μM and above, CpG DNA 10 μg/ml, 12 h, p<0.05 or p<0.01, dose-dependent) | inhibitory activity on TNF-α release induced by LPS ([1]; KB 25 μM and above, LPS 100 ng/ml, 12 h, p<0.05 or p<0.01) | TNF-α release, KB added before vs at the time of stimulation ([1]; KB 200 μM added 40 or 20 min before vs at 0 min, LPS 200 ng/ml or CpG DNA 20 μg/ml) | TNF-α levels in supernatant at various time points, CpG DNA ([1]; KB 200 μM, CpG DNA 10 μg/ml, 0, 2, 4, 8, 12 and 24 h) | release of TNF-α and IL-6 induced by LPS and CpG DNA ([1]; KB 200 μM, LPS 100 ng/ml, CpG DNA 10 μg/ml, selectivity panel) | TNF-α levels in supernatant at various time points, LPS ([1]; KB 200 μM, LPS 100 ng/ml, 0, 2, 4, 8, 12 and 24 h) | antagonistic effect on other irritant (Pam3CSK4, Poly I:C, TNF-α, IL-1β) ([1]; KB 200 μM, Pam3CSK4 10 μg/ml, Poly I:C 20 μg/ml, TNF-α 50 ng/ml, IL-1β 50 ng/ml) | release of TNF-α induced by LPS and CpG DNA under serum-free conditions ([1]; KB 50, 100 and 200 μM, serum-free DMEM, 12 h, dose-dependant) | inhibition on TNF-α release induced by LPS and CpG DNA, KB preincubated with stimulus ([1]; KB preincubated with LPS or CpG DNA for 20 min or 40 min before loading, 12 h) | release of TNF-α and IL-6 induced by CpG DNA [2] | release of TNF-α and IL-6 induced by LPS [2] |
| --- | --- | --- | --- | --- | --- | --- | --- | --- | --- | --- | --- | --- | --- | --- | --- | --- | --- | --- | --- |
| O=C(CCc1ccc(O)c(O)c1)NCCCNCCCCNCCCNC(=O)CCc1ccc(O)c(O)c1 [KA, Kukoamine A] | inhibit the release of TNF-α | inhibit the release of TNF-α | – | – | – | – | – | – | – | – | – | – | – | – | – | – | – | – | – |
| NCCCN(CCCCNCCCNC(=O)CCc1ccc(O)c(O)c1)C(=O)CCc1ccc(O)c(O)c1 [KB, Kukoamine B] | inhibit the release of TNF-α | inhibit the release of TNF-α | inhibit the release of TNF-α and IL-6 | inhibit the release of TNF-α and IL-6 | inhibit the release of TNF-α and IL-6 | inhibit the release of TNF-α and IL-6 | no statistic significance | no statistic significance | significantly increased | significantly increased | no significant difference | all decreased | can only inhibit the release of TNF-α and IL-6 induced by LPS and CpG DNA | all decreased | no antagonistic effect on other irritant | still inhibit the release of TNF-α | significantly enhanced | inhibit the release of TNF-α and IL-6 | inhibit the release of TNF-α and IL-6 |
| polymyxin B [PMB, reference compound] | – | – | can only inhibit the release of TNF-α and IL-6 induced by LPS | inhibit the release of TNF-α and IL-6 | – | – | – | – | – | – | – | – | – | – | – | – | – | can only inhibit the release of TNF-α and IL-6 induced by LPS | inhibit the release of TNF-α and IL-6 |
